Data taken from PubChem BioAssay AID330 (DTP/NCI, 2004).
“And” between values parts separate entries of the source, which are not always exact repeats. Equal values may be shown once. Inconclusive results and toxic doses are left out. How the source made its calls: active means survival T/C of 150% or more; inactive means T/C below 125% in these data.

Tested on: P388 leukemia ip, CD2F1 mice, survival T/C
Test: NCI In Vivo Anticancer Drug Screen. Data for tumor model P388 Leukemia (intraperitoneal) in CD2F1 (CDF1) mice
Conditions: endpoint: median survival time, higher = longer survival
Summary of the method: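 Mice carrying the transplanted tumor received test compound or vehicle. Survival was recorded in each group, and the value is the treated-group measurement divided by that of the vehicle-treated control group.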

[1] = dose: 50.0 mg/kg/injection, schedule: Q01DX009 (ip), vehicle: saline with Tween-80
[2] = dose: 100.0 mg/kg/injection, schedule: Q01DX009 (ip), vehicle: saline with Tween-80
[3] = dose: 200.0 mg/kg/injection, schedule: Q01DX009 (ip), vehicle: saline with Tween-80
[4] = dose: 100.0 mg/kg/injection, schedule: Q01DX001 (ip), vehicle: saline with Tween-80
[5] = dose: 200.0 mg/kg/injection, schedule: Q01DX001 (ip), vehicle: saline with Tween-80
[6] = dose: 400.0 mg/kg/injection, schedule: Q01DX001 (ip), vehicle: saline with Tween-80
[7] = dose: 60.0 mg/kg/injection, schedule: Q01DX005 (ip), vehicle: saline with Tween-80
[8] = dose: 120.0 mg/kg/injection, schedule: Q01DX005 (ip), vehicle: saline with Tween-80
[9] = dose: 240.0 mg/kg/injection, schedule: Q01DX005 (ip), vehicle: saline with Tween-80
[10] = dose: 50.0 mg/kg/injection, schedule: Q01DX005 (ip), vehicle: saline with Tween-80
[11] = dose: 100.0 mg/kg/injection, schedule: Q01DX005 (ip), vehicle: saline with Tween-80
[12] = dose: 6.25 mg/kg/injection, schedule: Q01DX009 (ip), vehicle: saline with Tween-80
[13] = dose: 12.5 mg/kg/injection, schedule: Q01DX009 (ip), vehicle: saline with Tween-80
[14] = dose: 25.0 mg/kg/injection, schedule: Q01DX009 (ip), vehicle: saline with Tween-80
[15] = dose: 200.0 mg/kg/injection, schedule: Q01DX005 (ip), vehicle: saline with Tween-80
[16] = dose: 12.5 mg/kg/injection, schedule: Q01DX009 (ip), vehicle: Klucel (hydroxypropylcellulose) (HPC)
[17] = dose: 25.0 mg/kg/injection, schedule: Q01DX009 (ip), vehicle: Klucel (hydroxypropylcellulose) (HPC)
[18] = dose: 50.0 mg/kg/injection, schedule: Q01DX009 (ip), vehicle: Klucel (hydroxypropylcellulose) (HPC)
[19] = dose: 200.0 mg/kg/injection, schedule: Q01DX009 (ip), vehicle: Klucel (hydroxypropylcellulose) (HPC)
[20] = dose: 100.0 mg/kg/injection, schedule: Q01DX001 (ip), vehicle: Klucel (hydroxypropylcellulose) (HPC)
[21] = dose: 200.0 mg/kg/injection, schedule: Q01DX001 (ip), vehicle: Klucel (hydroxypropylcellulose) (HPC)

Measured: T/C

O=C(O)C1C(C(=O)O)C2(Cl)C(Cl)=C(Cl)C1(Cl)C2(Cl)Cl.[Mn] (stereo unspecified)
inactive: dose: 50.0 mg/kg/injection, schedule: Q04DX003 (ip), vehicle: saline sonified 95 % of control | dose: 100.0 mg/kg/injection, schedule: Q04DX003 (ip), vehicle: saline sonified 91 % of control

CC(C)(C)N=C(CCN1CCOCC1)Nc1ccccc1Cl
inactive: [1] 113 % of control | [2] 106 % of control | [3] 109 % of control

CC(C)C[CH2][Ge]([CH2]CC(C)C)([CH2]CC(C)C)[CH2]CC(C)C
inactive: [4] 100 % of control | [5] 94 % of control | [6] 96 % of control

CCn1c2ccccc2n2c(=O)cc(-c3ccccc3)c(C#N)c12
inactive: [7] 98 % of control | [8] 106 % of control | [9] 97 % of control

C/C(=N\NC(N)=Nc1ccc(Cl)cc1)c1ccc2c(c1)Cc1ccccc1-2
inactive: dose: 100.0 mg/kg/injection, schedule: Q04DX002 (ip), vehicle: saline with Tween-80 104 % of control | dose: 200.0 mg/kg/injection, schedule: Q04DX002 (ip), vehicle: saline with Tween-80 111 % of control | dose: 400.0 mg/kg/injection, schedule: Q04DX002 (ip), vehicle: saline with Tween-80 114 % of control

OCNC(=S)c1ccccc1
inactive: [10] 105 % of control | [11] 105 % of control

O=[N+]([O-])c1ccc(O)cc1C=NCCSc1ccc(Cl)cc1
inactive: [1] 100 % of control | [2] 100 % of control | [3] 103 % of control

COc1cc2c(c(OC)c1OC)-c1cc3c(cc1CC1COC(=O)N1C2)OCO3 (stereo unspecified)
inactive: dose: 15.0 mg/kg/injection, schedule: Q01DX005 (ip), vehicle: Klucel (hydroxypropylcellulose) (HPC) 90 % of control and 94 % of control | dose: 30.0 mg/kg/injection, schedule: Q01DX005 (ip), vehicle: Klucel (hydroxypropylcellulose) (HPC) 100 % of control and 105 % of control | dose: 60.0 mg/kg/injection, schedule: Q01DX005 (ip), vehicle: Klucel (hydroxypropylcellulose) (HPC) 103 % of control and 116 % of control and 96 % of control

O=C1NN2CCCN=C2c2cnccc21
inactive: dose: 50.0 mg/kg/injection, schedule: Q01DX005 (ip), vehicle: saline 110 % of control | dose: 100.0 mg/kg/injection, schedule: Q01DX005 (ip), vehicle: saline 97 % of control | dose: 200.0 mg/kg/injection, schedule: Q01DX005 (ip), vehicle: saline 89 % of control

OCC1OC(n2ncc3ccccc32)C(O)C1O (stereo unspecified)
inactive: [12] 97 % of control | [13] 92 % of control | [14] 106 % of control | dose: 32.0 mg/kg/injection, schedule: Q01DX002 (ip), vehicle: saline with Tween-80 114 % of control and 90 % of control | [1] 106 % of control | dose: 64.0 mg/kg/injection, schedule: Q01DX002 (ip), vehicle: saline with Tween-80 106 % of control | [2] 100 % of control | dose: 128.0 mg/kg/injection, schedule: Q01DX002 (ip), vehicle: saline with Tween-80 112 % of control and 116 % of control

N#CC(=C1SCS1)[N+](=O)[O-]
inactive: dose: 1.56 mg/kg/injection, schedule: Q01DX009 (ip), vehicle: saline 121 % of control | dose: 3.13 mg/kg/injection, schedule: Q01DX009 (ip), vehicle: saline with Tween-80 121 % of control

CCC(/C=C/c1ccccc1)=N\NC(=O)c1ccccc1
inactive: [10] 96 % of control | [11] 96 % of control | [15] 95 % of control

CC(=O)CSc1ncnc2nc[nH]c12
inactive: dose: 100.0 mg/kg/injection, schedule: Q04DX003 (ip), vehicle: saline with Tween-80 100 % of control | dose: 200.0 mg/kg/injection, schedule: Q04DX003 (ip), vehicle: saline with Tween-80 113 % of control | dose: 400.0 mg/kg/injection, schedule: Q04DX003 (ip), vehicle: saline with Tween-80 109 % of control

CC1=NC(C#N)=C(C#N)N=C(C)C1
inactive: [16] 93 % of control | [17] 94 % of control | [18] 93 % of control

O=[N+]([O-])c1ccc(SC(=S)N2CCCCC2)c([N+](=O)[O-])c1
inactive: [18] 105 % of control | dose: 100.0 mg/kg/injection, schedule: Q01DX009 (ip), vehicle: Klucel (hydroxypropylcellulose) (HPC) 106 % of control | [19] 111 % of control

COC(=O)CN1CC1
inactive: dose: 3.12 mg/kg/injection, schedule: Q01DX009 (ip), vehicle: saline with Tween-80 100 % of control | [12] 95 % of control | [13] 94 % of control | [14] 95 % of control

C=C1C[C@](C(N)=O)(C2OC3OC(C)(C)OC3C2OCc2ccccc2)OC1=O (stereo partly specified)
inactive: dose: 25.0 mg/kg/injection, schedule: Q01DX005 (ip), vehicle: saline with Tween-80 103 % of control | [10] 100 % of control | [4] 96 % of control | [11] 92 % of control

C[C@]12CC[C@H](OC(=O)/C=C\c3ccc(N(CCCl)CCCl)cc3)CC1CC[C@@H]1C2CC[C@]2(C)NC(=O)CCC12 (stereo partly specified)
inactive: [4] 100 % of control | [5] 100 % of control | [6] 100 % of control

Nc1nnn(CCCl)n1
inactive: [20] 88 % of control | [21] 88 % of control

CCCn1c(Cl)c(C=O)c2ccccc21
inactive: [20] 104 % of control | [21] 98 % of control | dose: 400.0 mg/kg/injection, schedule: Q01DX001 (ip), vehicle: Klucel (hydroxypropylcellulose) (HPC) 97 % of control

Cc1cc(NCCO)nc2c1ccc1ccccc12
inactive: [14] 90 % of control | [1] 91 % of control | [2] 101 % of control

O=C1CSc2ccccc2N1
inactive: dose: 6.25 mg/kg/injection, schedule: Q01DX009 (ip), vehicle: suspension in saline 102 % of control | [16] 105 % of control | dose: 12.5 mg/kg/injection, schedule: Q01DX009 (ip), vehicle: suspension in saline 104 % of control | [17] 97 % of control | dose: 25.0 mg/kg/injection, schedule: Q01DX009 (ip), vehicle: suspension in saline 99 % of control | [18] 88 % of control and 95 % of control | dose: 50.0 mg/kg/injection, schedule: Q01DX009 (ip), vehicle: suspension in saline 104 % of control | [19] 100 % of control | dose: 400.0 mg/kg/injection, schedule: Q01DX009 (ip), vehicle: Klucel (hydroxypropylcellulose) (HPC) 99 % of control

C/C=C/C=C(/C=O)[C@@H](O)C(C)=O
inactive: dose: 2.0 mg/kg/injection, schedule: Q01DX009 (ip), vehicle: saline + alcohol 121 % of control and 93 % of control | dose: 4.0 mg/kg/injection, schedule: Q01DX009 (ip), vehicle: saline + alcohol 101 % of control | dose: 8.0 mg/kg/injection, schedule: Q01DX009 (ip), vehicle: saline + alcohol 101 % of control | dose: 16.0 mg/kg/injection, schedule: Q01DX009 (ip), vehicle: saline + alcohol 111 % of control

CCOC(=O)CC(C#N)(C#N)CC(=O)OCC
inactive: [10] 101 % of control | [11] 107 % of control | [15] 106 % of control

CC(=O)C1=C(O)/C(=C\SCc2ccccc2)NC1=O
inactive: dose: 8.75 mg/kg/injection, schedule: Q01DX005 (ip), vehicle: Klucel (hydroxypropylcellulose) (HPC) 105 % of control | dose: 17.5 mg/kg/injection, schedule: Q01DX005 (ip), vehicle: Klucel (hydroxypropylcellulose) (HPC) 104 % of control | dose: 35.0 mg/kg/injection, schedule: Q01DX005 (ip), vehicle: Klucel (hydroxypropylcellulose) (HPC) 101 % of control

COc1cccc(C(Nc2nncs2)Nc2nncs2)c1
inactive: [7] 97 % of control | [8] 97 % of control | [9] 122 % of control

O=C1OCCOCCOC(=O)C(=O)OCCOCCOC1=O
inactive: dose: 100.0 mg/kg/injection, schedule: Q04DX003 (ip), vehicle: Klucel (hydroxypropylcellulose) (HPC) 98 % of control | dose: 200.0 mg/kg/injection, schedule: Q04DX003 (ip), vehicle: Klucel (hydroxypropylcellulose) (HPC) 100 % of control | dose: 400.0 mg/kg/injection, schedule: Q04DX003 (ip), vehicle: Klucel (hydroxypropylcellulose) (HPC) 98 % of control
